Measurements taken from patent publication US10258603B2 (priority 2014, dated 2019).
pIC50: −log10 of the molar value.

molecular target: T1, CECR2 (Homo sapiens, UniProt Q9BXF3); assay: CECR2 TR-FRET Binding Assay; settings: IC50 (uM)
T1 construct: 424-538 was cloned, expressed, and purified to homogeneity; Flag; made in house
Source text: IC50 Measurements for Inhibitors Using CECR2 TR-FRET Binding Assay

T1 sequence (Q9BXF3 424-538 limits assumed): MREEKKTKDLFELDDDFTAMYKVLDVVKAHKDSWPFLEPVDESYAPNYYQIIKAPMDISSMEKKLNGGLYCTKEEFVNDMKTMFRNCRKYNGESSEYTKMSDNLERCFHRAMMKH

Row | Compound | IC50 [µM]
1 | CC(C)N1CCC(N(C)C(=O)c2cn(C)c(=O)c3[nH]ccc23)CC1 [Example 41, N-(1-isopropyl-4-piperidyl)-N,6-dimethyl-7-oxo-1H-pyrrolo[2,3-c]pyridine-4-carboxamide] | 0.77

same assay, conditions: read-out: IC50

Row | Compound | pIC50
2 | CC(C)N1CC[C@@H](NC(=O)c2cn(C)c(=O)c3[nH]ccc23)[C@H](C)C1 (relative stereo) [Example 239] | 5.64
3 | C=CCn1cc(C(=O)N2CCN(c3ccc(F)cc3)CC2C(N)=O)c2cc(C)[nH]c2c1=O (single isomer, unassigned) [Example 273, 1-(6-allyl-2-methyl-7-oxo-6,7-dihydro-1H-pyrrolo[2,3-c]pyridine-4-carbonyl)-4-(4-fluorophenyl)piperazine-2-carboxamide] | 5.31
4 | C=CCn1cc(C(=O)N2CCN(c3ccc(F)cc3)CC2C(N)=O)c2cc(C)[nH]c2c1=O (single isomer, unassigned) [Example 274, 1-(6-allyl-2-methyl-7-oxo-6,7-dihydro-1H-pyrrolo[2,3-c]pyridine-4-carbonyl)-4-(4-fluorophenyl)piperazine-2-carboxamide] | 7.13
5 | C=CCn1cc(C(=O)N(C)C2CCC(C)(C)c3ccccc32)c2cc(C)[nH]c2c1=O (single isomer, unassigned) [Example 279] | 7.92
6 | C=CCn1cc(C(=O)N(C)C2CCC(C)(C)c3ccccc32)c2cc(C)[nH]c2c1=O (single isomer, unassigned) [Example 280] | 7.31
7 | C=CCn1cc(C(=O)N(C)C2CCCc3cc(OC)ccc32)c2cc(C)[nH]c2c1=O (single isomer, unassigned) [Example 281] | 7.49
8 | C=CCn1cc(C(=O)N(C)C2CCCc3cc(OC)ccc32)c2cc(C)[nH]c2c1=O (single isomer, unassigned) [Example 282] | 7.17
9 | C=CCn1cc(C(=O)N(C)C2CCCc3c(F)cccc32)c2cc(C)[nH]c2c1=O (single isomer, unassigned) [Example 286] | 7.39
10 | C=CCn1cc(C(=O)N(C)C2CCCc3ccc(C)cc32)c2cc(C)[nH]c2c1=O (single isomer, unassigned) [Example 287] | 7.08
11 | C=CCn1cc(C(=O)N(C)C2CCCc3c(OC)cccc32)c2cc(C)[nH]c2c1=O (single isomer, unassigned) [Example 288] | 7.39
12 | C=CCn1cc(C(=O)N(C)C2CCCc3c(OC)cccc32)c2cc(C)[nH]c2c1=O (single isomer, unassigned) [Example 289] | 7.35
13 | C=CCn1cc(C(=O)N(C)C2CCCc3ccncc32)c2cc(C)[nH]c2c1=O (single isomer, unassigned) [Example 290] | 7.30
14 | C=CCn1cc(C(=O)N(C)C2CCCc3ccncc32)c2cc(C)[nH]c2c1=O (single isomer, unassigned) [Example 291] | 6.85
15 | CC(CN(C)C)NC(=O)c1cn(C)c(=O)c2[nH]ccc12 (centres unmarked) [Example 2, N-[2-(dimethylamino)-1-methyl-ethyl]-6-methyl-7-oxo-1H-pyrrolo[2,3-c]pyridine-4-carboxamide] | 4.85
16 | CN(C)C1CCC(NC(=O)c2cn(C)c(=O)c3[nH]ccc23)CC1 (centres unmarked) [Example 21, N-[4-(dimethylamino)cyclohexyl]-6-methyl-7-oxo-1H-pyrrolo[2,3-c]pyridine-4-carboxamide] | 6.05
17 | CC(C)N1CCC(CN(C)C(=O)c2cn(C)c(=O)c3[nH]ccc23)C1 (centres unmarked) [Example 23, N-[(1-isopropylpyrrolidin-3-yl)methyl]-N,6-dimethyl-7-oxo-1H-pyrrolo[2,3-c]pyridine-4-carboxamide] | 5.68
18 | CC1CCN(CCNC(=O)c2cn(C)c(=O)c3[nH]ccc23)CC1 [Example 26, 6-methyl-N-[2-(4-methyl-1-piperidyl)ethyl]-7-oxo-1H-pyrrolo[2,3-c]pyridine-4-carboxamide] | 5.49
19 | CC1CCCCN1CCCNC(=O)c1cn(C)c(=O)c2[nH]ccc12 (centres unmarked) [Example 29, 6-methyl-N-[3-(2-methyl-1-piperidyl)propyl]-7-oxo-1H-pyrrolo[2,3-c]pyridine-4-carboxamide] | 5.74
20 | Cn1cc(C(=O)NCCN2CCC(O)CC2)c2cc[nH]c2c1=O [Example 30, N-[2-(4-hydroxy-1-piperidyl)ethyl]-6-methyl-7-oxo-1H-pyrrolo[2,3-c]pyridine-4-carboxamide] | 5.42
21 | Cn1cc(C(=O)NCCN2CCS(=O)(=O)CC2)c2cc[nH]c2c1=O [Example 37, N-[2-(1,1-dioxo-1,4-thiazinan-4-yl)ethyl]-6-methyl-7-oxo-1H-pyrrolo[2,3-c]pyridine-4-carboxamide] | 5.51
22 | Cn1cc(C(=O)N2CCC(N3CCCCC3)CC2)c2cc[nH]c2c1=O [Example 59, 6-methyl-4-[4-(1-piperidyl)piperidine-1-carbonyl]-1H-pyrrolo[2,3-c]pyridin-7-one] | 6.05
23 | CN(C)C1CCN(C(=O)c2cn(C)c(=O)c3[nH]ccc23)C1 (centres unmarked) [Example 60, 4-[3-(dimethylamino)pyrrolidine-1-carbonyl]-6-methyl-1H-pyrrolo[2,3-c]pyridin-7-one] | 4.99

Row | Compound | pIC50
24 | CN1CCN(C2CCN(C(=O)c3cn(C)c(=O)c4[nH]ccc34)CC2)CC1 [Example 61, 6-methyl-4-[4-(4-methylpiperazin-1-yl)piperidine-1-carbonyl]-1H-pyrrolo[2,3-c]pyridin-7-one] | 6.00
25 | CC1CCN(C2CCN(C(=O)c3cn(C)c(=O)c4[nH]ccc34)CC2)CC1 [Example 62, 6-methyl-4-[4-(4-methyl-1-piperidyl)piperidine-1-carbonyl]-1H-pyrrolo[2,3-c]pyridin-7-one] | 5.82
26 | CC1CCN(C(=O)c2cn(C)c(=O)c3[nH]ccc23)CC1 [Example 65, 6-methyl-4-(4-methylpiperidine-1-carbonyl)-1H-pyrrolo[2,3-c]pyridin-7-one] | 5.85
27 | COC1CCN(C(=O)c2cn(C)c(=O)c3[nH]ccc23)CC1 [Example 66, 4-(4-methoxypiperidine-1-carbonyl)-6-methyl-1H-pyrrolo[2,3-c]pyridin-7-one] | 5.62
28 | CC1CCCN(C2CCN(C(=O)c3cn(C)c(=O)c4[nH]ccc34)CC2)C1 (centres unmarked) [Example 67, 6-methyl-4-[4-(3-methyl-1-piperidyl)piperidine-1-carbonyl]-1H-pyrrolo[2,3-c]pyridin-7-one] | 5.74
29 | Cn1cc(C(=O)N2CCC(C(C)(C)O)CC2)c2cc[nH]c2c1=O [Example 68, 4-[4-(1-hydroxy-1-methyl-ethyl)piperidine-1-carbonyl]-6-methyl-1H-pyrrolo[2,3-c]pyridin-7-one] | 5.52
30 | Cn1cc(C(=O)N2CCC(Cc3ccc(F)cc3)CC2)c2cc[nH]c2c1=O [Example 69, 4-[4-[(4-fluorophenyl)methyl]piperidine-1-carbonyl]-6-methyl-1H-pyrrolo[2,3-c]pyridin-7-one] | 6.35
31 | COCC1CCN(C(=O)c2cn(C)c(=O)c3[nH]ccc23)CC1 [Example 72, 4-[4-(methoxymethyl)piperidine-1-carbonyl]-6-methyl-1H-pyrrolo[2,3-c]pyridin-7-one] | 5.66
32 | Cn1cc(C(=O)N2CCC3(CC2)COC3)c2cc[nH]c2c1=O [Example 73, 6-methyl-4-(2-oxa-7-azaspiro[3.5]nonane-7-carbonyl)-1H-pyrrolo[2,3-c]pyridin-7-one] | 5.60
33 | CN(C)C(=O)C1CCN(C(=O)c2cn(C)c(=O)c3[nH]ccc23)CC1 [Example 74, N,N-dimethyl-1-(6-methyl-7-oxo-1H-pyrrolo[2,3-c]pyridine-4-carbonyl)piperidine-4-carboxamide] | 5.23
34 | Cn1cc(C(=O)N2CCC(CO)CC2)c2cc[nH]c2c1=O [Example 75, 4-[4-(hydroxymethyl)piperidine-1-carbonyl]-6-methyl-1H-pyrrolo[2,3-c]pyridin-7-one] | 5.32
35 | Cn1cc(C(=O)N2CCC(CCc3ccncc3)CC2)c2cc[nH]c2c1=O [Example 76, 6-methyl-4-[4-[2-(4-pyridyl)ethyl]piperidine-1-carbonyl]-1H-pyrrolo[2,3-c]pyridin-7-one] | 6.46
36 | Cn1cc(C(=O)N2CCC(N3CCCC3)CC2)c2cc[nH]c2c1=O [Example 77, 6-methyl-4-(4-pyrrolidin-1-ylpiperidine-1-carbonyl)-1H-pyrrolo[2,3-c]pyridin-7-one] | 5.57
37 | CC1CN(C(=O)c2cn(C)c(=O)c3[nH]ccc23)CCC1N(C)C (centres unmarked) [Example 78, 4-[4-(dimethylamino)-3-methyl-piperidine-1-carbonyl]-6-methyl-1H-pyrrolo[2,3-c]pyridin-7-one] | 5.00
38 | CCN(CC)C1CCN(C(=O)c2cn(C)c(=O)c3[nH]ccc23)CC1 [Example 79, 4-[4-(diethylamino)piperidine-1-carbonyl]-6-methyl-1H-pyrrolo[2,3-c]pyridin-7-one] | 5.29
39 | Cc1cccc(NC(=O)c2cn(C)c(=O)c3[nH]ccc23)c1 [Example 80, 6-methyl-N-(m-tolyl)-7-oxo-1H-pyrrolo[2,3-c]pyridine-4-carboxamide] | 6.29
40 | Cn1cc(C(=O)Nc2cccc(CN3CCOCC3)c2)c2cc[nH]c2c1=O [Example 113] | 6.51
41 | CN(C(=O)c1cn(C)c(=O)c2[nH]ccc12)C1CCN(c2ccncn2)CC1 [Example 139, N,6-dimethyl-7-oxo-N-(1-pyrimidin-4-yl-4-piperidyl)-1H-pyrrolo[2,3-c]pyridine-4-carboxamide] | 6.62
42 | Cc1cnc(N2CCC(N(C)C(=O)c3cn(C)c(=O)c4[nH]ccc34)CC2)nc1 [Example 140, N,6-dimethyl-N-[1-(5-methylpyrimidin-2-yl)-4-piperidyl]-7-oxo-1H-pyrrolo[2,3-c]pyridine-4-carboxamide] | 6.47
43 | CN(C(=O)c1cn(C)c(=O)c2[nH]ccc12)C1CCN(c2ncc(C#N)cn2)CC1 [Example 141, N-[1-(5-cyanopyrimidin-2-yl)-4-piperidyl]-N,6-dimethyl-7-oxo-1H-pyrrolo[2,3-c]pyridine-4-carboxamide] | 6.41
44 | CN(C(=O)c1cn(C)c(=O)c2[nH]ccc12)C1CCN(c2nccc(C(F)(F)F)n2)CC1 [Example 142, N,6-dimethyl-7-oxo-N-[1-[4-(trifluoromethyl)pyrimidin-2-yl]-4-piperidyl]-1H-pyrrolo[2,3-c]pyridine-4-carboxamide] | 6.54
